10 compounds from patent publication US5099063A, “Certain phosphinic acid derivatives having antibacterial activity” (Merck & Co., Inc., priority 1990, dated 1992) can be followed below.

pIC50, pKi: −log10 of the molar value.

The first test concerns the target T1, D-Alanyl-D-Alanine ligase (Enterococcus hirae, UniProt Q47827).
T1 sequence (Q47827 1-358): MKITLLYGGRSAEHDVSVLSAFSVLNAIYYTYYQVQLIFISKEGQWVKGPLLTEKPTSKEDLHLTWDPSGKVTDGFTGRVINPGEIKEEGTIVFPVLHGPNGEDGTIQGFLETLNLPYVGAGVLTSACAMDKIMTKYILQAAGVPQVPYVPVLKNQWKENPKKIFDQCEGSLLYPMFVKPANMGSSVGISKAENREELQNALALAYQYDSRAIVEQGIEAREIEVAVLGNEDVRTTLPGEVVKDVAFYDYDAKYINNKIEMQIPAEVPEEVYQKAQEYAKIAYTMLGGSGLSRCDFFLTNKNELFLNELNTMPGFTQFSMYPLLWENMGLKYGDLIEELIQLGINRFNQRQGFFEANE
The test is described as follows: D-Alanyl-D-Alanine ligase in vitro inhibition. The class given is biochemical. To be noted: inhibitor pre-incubated with enzyme 40 minutes at room temperature, then 37° C. for 30 minutes; 0.005M (14C-1)-D-alanine; read-out: D-AlaAla Ligase Inhibition IC50. As for the experimental part: The ligase enzyme inhibitory activity of compounds of Formula I have been evaluated in vitro with only minor modifications of the procedures of F. C. Neuhaus (Biochemistry 3, 471-480 (1964) and references cited therein) using D-cycloserine as a control and standard ligase inhibitor. The procedure is as follows:
Streptococcus faecalis (ATCC 8043) was grown as described by Neuhaus (J. Biol. Chem., 237:778, 1962). Cell-free extracts were prepared by sonication followed by centrifugation at 27,000×g for 30 minutes. Protein was precipitated with 55% ammonium sulfate. The precipitate was dissolved in 0.05M Tris-Cl buffer (PH 7.0), dialyzed against 0.0025M glutathione and stored in liquid nitrogen. No loss of activity was observed after 1 year.
The assay mixture contained 0.05M Tris-Cl buffer (pH 7.9), 0.01M KCl, 0.008M MgCl2, 0.005M ATP, 0.005M (14C-1)-D-alanine and 5 μof enzyme (specific activity=0.38 units/mg protein). Assay volume was 0.1 ml.
Inhibitors were pre-incubated with enzyme, MgCl2, KCl and buffer, for 40 minutes at room temperature, before addition of ATP and substrate. Samples were subsequently incubated at 37° C. for 30 minutes.
Twenty μl of each sample was applied to the preabsorbent layer of high resolution, pre-channeled silica-gel TLC plates to stop the reaction. Plates were developed in ethanol:ammonium hydroxide: H2 O (11:1:8) for 2-3 hours and the radioactive zones located and integrated with a Berthold Linear Analyzer. […] IC50 's were determined for active compounds (70% inhibition).
Regarding `CC(N)P(=O)(O)C/C(=C/Cc1ccccc1)C(=O)O` (racemic) [DL; R5=benzyl (E isomers)], the pIC50 was 3.68.
On the same count and under the same terms, next, `CCCCCC=C(CP(=O)(O)C(C)N)C(=O)O` (racemic) [DL; R5=n-pentyl, (E,Z isomers), 1-Aminoethyl-(2-carboxy-oct-2-enyl)phosphinic acid (E/Z mixture)]: 3.15.
On the same count and under the same terms, the result for `CCC(CP(=O)(O)[C@@H](C)N)C(=O)O` (stereo partly drawn) [D; R2=ethyl; R3=H, 1-D-Aminoethyl-(2l-carboxy-1-n-butyl)phosphinic acid] reads 4.35; that for `CC(CP(=O)(O)[C@@H](C)N)C(=O)O` (stereo partly drawn) [D; R2=methyl; R3=H, 1-D-Aminoethyl-(2l-carboxy-1-propyl)phosphinic acid], […]; that for `CCCCCCCC(CP(=O)(O)[C@@H](C)N)C(=O)O` (stereo partly drawn) [D; R2=n-heptyl; R3=H, 1-D-Aminoethyl-[2-carboxy-1-nonyl]-phosphinic acid], 5.40.
Still for that read-out and setting: the result for `C=C(CP(=O)(O)[C@@H](C)N)C(=O)O` [D; R5=H] reads 3.68.
`CC(CP(=O)(O)C(C)N)C(=O)O` (stereo not drawn) [DL; R2=methyl; R3=H, 1-Aminoethyl-(2-carboxy-1-propyl)phosphinic acid]: the pIC50 was […].
With `COC(=O)C(C)CP(=O)(O)C(C)N` (stereo not drawn) [DL; R2=methyl; R3=methyl, 1-Aminoethyl-(2-carbomethoxy-1-propyl)phosphinic acid], the pIC50 is 4.22.
Take `CC(N)P(=O)(O)CC(CCCc1ccccc1)C(=O)O` (stereo not drawn) [DL; R2=phenylpropyl; R3=H, 1-Aminoethyl-[2-carboxy-5-phenyl-1-n-pentyl]-phosphinic acid]: the pIC50 was 4.70.

The next test addresses T2, dehydropeptidase-I (renal dipeptidase, EC 3.4.13.11) (Sus scrofa, UniProt P22412).
T2 construct: a solubilized preparation of dipeptidase isolated from hog kidneys; from tissue; host or cells: hog kidney
T2 sequence (P22412 17-409): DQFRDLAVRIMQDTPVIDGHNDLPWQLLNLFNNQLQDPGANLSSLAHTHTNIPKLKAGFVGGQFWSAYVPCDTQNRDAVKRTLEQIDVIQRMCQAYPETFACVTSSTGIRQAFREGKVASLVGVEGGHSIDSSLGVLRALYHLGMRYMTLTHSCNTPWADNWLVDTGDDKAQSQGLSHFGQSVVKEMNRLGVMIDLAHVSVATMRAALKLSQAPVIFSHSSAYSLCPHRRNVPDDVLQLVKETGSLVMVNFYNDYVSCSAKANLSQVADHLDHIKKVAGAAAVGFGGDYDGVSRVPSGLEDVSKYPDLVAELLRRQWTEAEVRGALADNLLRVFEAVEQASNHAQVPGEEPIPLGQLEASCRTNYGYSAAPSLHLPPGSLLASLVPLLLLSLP
The test is described as follows: Renal dehydropeptidase I inhibition (hydrolysis of glycyldehydrophenylalanine). It is filed as biochemical. To be noted: hog kidney dipeptidase, GDP 0.05 mM, MOPS pH 7.1, 37° C.; Ki stated as concentration which achieves 50% inhibition. On the procedure:
This measured the ability of compounds to inhibit hydrolysis of glycyldehydrophenylalanine (GDP) by a solubilized preparation of dipeptidase isolated from hog kidneys. The procedure is as follows: to a 1 ml system containing 50 mM "MOPS" (3-(N-morpholino)propanesulfonic acid) buffer, pH 7.1, is added 5 μg of lyophilized enzyme, and the test compound at a final concentration of 0.1 mM. After a five minute incubation at 37° C., GDP is added to a final concentration of 0.05 mM. […] Inhibition of the enzyme is gauged by comparison to a standard run containing no inhibitor and is expressed as the inhibitor binding constant, Ki.
As to `CCCCC(CP(=O)(O)C(C)N)C(=O)O` (racemic) [DL; R2=n-butyl], the pKi was 8.40.

The pIC50 is the negative decadic logarithm of the IC50, by convention in mol/L. In general, pKi refers to the Ki on a negative log10 scale, so that one unit is a factor of ten. Read a low pKi as a high Ki.
